# Experimental data reported in patent publication US20210161997A1, “TREATING DISEASES VIA TARGETED MODULATION OF GENE SIGNALING NETWORKS” (Camp4 Therapeutics Corporation, priority 2018, published 2021).
# Counter-ions that a name gives are not always drawn. Like-named read-outs stand apart in the source and are kept apart here.
# Key:
# Assay type in all cases: cell-based
# ANGPTL3 = assay: RNA-seq of ANGPTL3 expression in compound-treated primary human hepatocytes; settings: additional compounds (Table 13), linear fold change
# In short: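 Cryopreserved primary human hepatocytes from three donors, plated at 375,000 cells/well, switched to complete or modified maintenance medium, then dosed with compound (stocks at 1000× final) for about 18 h. Poly(A) mRNA was sequenced directionally, mapped to GRCh38 with STAR, and gene-level abundance (counts, FPKM) estimated with RSEM against GENCODE 24.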
# FN1 = assay: RNA-seq of FN1 expression in compound-treated primary human hepatocytes; settings: perturbed vs unperturbed, significance FPKM ≥1, log 2(fold change) ≥0.5, q-value ≤0.05
# Description: (§1) Human hepatocytes were obtained from two donors from Massachusetts General Hospital, namely MGH54 and MGH63, and one donor from Lonza, namely HUM4111B. Cryopreserved hepatocytes were cultured in plating media for 16 hours, transferred to maintenance media for 4 hours. Cultured on serum-free media for 2 hours, then a compound was added. The hepatocytes were maintained on the serum-free media for 16 hours prior to gene expression analysis. Primary human hepatocytes were stored in the vapor phase of a liquid nitrogen freezer (about −130° C.).
# (§2) Human hepatocytes cultured as described above were plated in 24-well format, adding 375,000 cells per well in a volume of 500 ul plating medium. Four hours before treatment, cells were washed with PBS and the medium was changed to either: fresh maintenance medium (complete) or modified maintenance medium.
# (§3) Compound stocks were prepared at 1000× final concentration and added in a 2-step dilution to the medium to reduce risk of a compound precipitating out of solution when added to the cells, and to ensure reasonable pipetting volumes. One at a time, each compound was first diluted 10-fold in warm (about 37° C.) modified maintenance medium (initial dilution=ID), mixed by vortexing, and the ID was diluted 100-fold into the cell culture (e.g. 5.1 ul into 1 well of a 24-well plate containing 0.5 mL medium). The plate was mixed by carefully swirling and after all wells were treated and returned to the incubator overnight. If desired, separate plates/wells were treated with vehicle-only controls and/or positive controls. If using multi-well plates, controls were included on each plate. After about 18 hours, cells were harvested for further analysis, e.g., ChIP-seq, RNA-seq, ATAC-seq, etc.
# (§4) This protocol is a modified version of the following protocols: MagMAX mirVana Total RNA Isolation Kit User Guide (Applied Biosystems #MAN0011131 Rev B.0), NEBNext Poly(A) mRNA Magnetic Isolation Module (E7490), and NEBNext Ultra Directional RNA Library Prep Kit for Illumina (E7420) (New England Biosystems #E74901).
# (§5) The MagMAX mirVana kit instructions (the section titled “Isolate RNA from cells” on pages 14-17) were used for isolation of total RNA from cells in culture. Two hundred μl of Lysis Binding Mix was used per well of the multiwell plate containing adherent cells (usually a 24-well plate).
# (§6) For mRNA isolation and library prep, the NEBNext Poly(A) mRNA Magnetic Isolation Module and Directional Prep kit was used. RNA isolated from cells above was quantified, and prepared in […] of each sample in 50 μl of nuclease-free water. This protocol may be run in microfuge tubes or in a 96-well plate.
# All pass filter reads from each sample were mapped against the human genome (assembly GRCh38/GCA_000001405.15 “no alt” analysis set merged with hs38d1/GCA_000786075.2) using two pass mapping via STAR version 2.5.3a (alignment parameters alignIntronMin=20; alignIntronMax=1000000; outFilterMismatchNmax=999; outFilterMismatchNoverLmax=0.05; outFilterType=BySJout; outFilterMultimapNmax=20; alignSJoverhangMin=8; alignSJDBoverhangMin=1; alignMatesGapMax=1000000) (Dobin et al., Bioinformatics (2012) 29(1):15-21). Genomic alignments were converted to transcriptome alignments based on reference transcript annotations from the Human GENCODE Gene Set release 24 (Harrow et al., Genome Res. (2012) 22(9): 1760-1774). Using unique and multimapped transcriptomic alignments, gene-level abundance estimates were computed using RSEM version 1.3.0 (Li and Dewey, BMC Bioinformatics (2011) 12:323) in a strand-aware manner, and including confidence interval sampling calculations, to arrive at posterior mean estimates (PME) of abundances (counts and normalized FPKM—fragments per kilobase of exon per million mapped fragments) from the underlying Bayesian model. Standard QC were applied (read integrity, mapping statistics, library complexity, fragment bias) to remove unsatisfactory samples.
# LECT2 = assay: RNA-seq of LECT2 expression in compound-treated primary human hepatocytes
# Description: as §1, §2, §3, §4, §5, §6
# (§7) Standard QC were applied (read integrity, mapping statistics, library complexity, fragment bias) to remove unsatisfactory samples. […] Log 2 fold change and significance values were computed using PME count data (with replicates explicitly modeled versus pan-experiment controls), median ratio normalized, using maximum likelihood estimation rather than maximum a posteriori, and disabling the use of Cook's distance cutoff when determining acceptable adjusted p-values. […] RNA-seq signals were also normalized by read depth and visualized using the UCSC browser.
# (§8) To identify small molecules that modulate target gene expression, primary human hepatocytes were prepared as a monoculture, and at least one small molecule compound was applied to the cells.
# (§9) RNA-seq was performed to determine the effects of the compounds on the expression of the target genes in hepatocytes. Fold change was calculated by dividing the level of expression in the cell system that had been perturbed by the level of expression in an unperturbed system. Changes in expression having a p-value ≤0.05 were considered significant.
# Significance was defined as an FPKM ≥1, a log 2(fold change) ≥0.5, and a q-value of ≤0.05 for all targets except for CPOX.
# CPOX = assay: RNA-seq of CPOX expression in compound-treated primary human hepatocytes
# Description: as §1, §2, §3, §4, §5, §6, §7, §8, §9
# Significance was defined as an FPKM ≥0.5 a log 2(fold change) ≥0.3, and a q-value of ≤0.05.
# UGT1A1 = assay: RNA-seq of UGT1A1 expression in compound-treated primary human hepatocytes
# In short: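 Cryopreserved primary human hepatocytes from three donors were plated in 24-well format, then treated with compound diluted from 1000× stocks in serum-free maintenance medium for about 16–18 h. Poly(A) RNA-seq log2 fold change was computed against vehicle/pan-experiment controls. Significance required FPKM ≥1, log2FC ≥0.5 and q ≤0.05.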
# JAG1 = assay: RNA-seq of JAG1 expression in compound-treated primary human hepatocytes
# Description: (§10) Human hepatocytes were obtained from two donors from Massachusetts General Hospital, namely MGH54 and MGH63, and one donor from Lonza, namely HUM4111B. Cryopreserved hepatocytes were cultured in plating media for 16 hours, transferred to maintenance media for 4 hours. Cultured on serum-free media for 2 hours, then a compound was added. The hepatocytes were maintained on the serum-free media for 16 hours prior to gene expression analysis. Primary human hepatocytes were stored in the vapor phase of a liquid nitrogen freezer (about -130° C.). Human hepatocytes cultured as described above were plated in 24-well format, adding 375,000 cells per well in a volume of 500 ul plating medium. Four hours before treatment, cells were washed with PBS and the medium was changed to either: fresh maintenance medium (complete) or modified maintenance medium. Compound stocks were prepared at 1000× final concentration and added in a 2-step dilution to the medium to reduce risk of a compound precipitating out of solution when added to the cells, and to ensure reasonable pipetting volumes. […] The plate was mixed by carefully swirling and after all wells were treated and returned to the incubator overnight. If desired, separate plates/wells were treated with vehicle-only controls and/or positive controls. If using multi-well plates, controls were included on each plate. After about 18 hours, cells were harvested for further analysis, e.g., ChIP-seq, RNA-seq, ATAC-seq, etc. This protocol is a modified version of the following protocols: MagMAX mirVana Total RNA Isolation Kit User Guide (Applied Biosystems #MAN0011131 Rev B.0), NEBNext Poly(A) mRNA Magnetic Isolation Module ([…]), and NEBNext Ultra Directional RNA Library Prep Kit for Illumina ([…]) (New England Biosystems #E74901). […] Two hundred μl of Lysis Binding Mix was used per well of the multiwell plate containing adherent cells (usually a 24-well plate). For mRNA isolation and library prep, the NEBNext Poly(A) mRNA Magnetic Isolation Module and Directional Prep kit was used. RNA isolated from cells above was quantified, and prepared in […] of each sample in 50 μl of nuclease-free water. This protocol may be run in microfuge tubes or in a 96-well plate. […] Genomic alignments were converted to transcriptome alignments based on reference transcript annotations from the Human GENCODE Gene Set release 24 (Harrow et al., Genome Res. […] Standard QC were applied (read integrity, mapping statistics, library complexity, fragment bias) to remove unsatisfactory samples. Differential gene expression was computed using the negative binomial model implemented by DESeq2 version 1.16.1 (Love et al., Genome Biol. (2014) 15(12):550). […] RNA-seq signals were also normalized by read depth and visualized using the UCSC browser. To identify small molecules that modulate target gene expression, primary human hepatocytes were prepared as a monoculture, and at least one small molecule compound was applied to the cells. RNA-seq was performed to determine the effects of the compounds on the expression of the target genes in hepatocytes. Fold change was calculated by dividing the level of expression in the cell system that had been perturbed by the level of expression in an unperturbed system.
# NOTCH2 = assay: RNA-seq of NOTCH2 expression in compound-treated primary human hepatocytes; settings: primary human hepatocytes
# Description: as §10
SMILES,ANGPTL3-LINEAR FOLD CHANGE (ANGPTL3),FN1 Fold Change (Log2) (FN1),CPOX Fold change (Log2) (CPOX),also measured
CN1CCN(S(=O)(=O)c2ccc(-c3cnc(N)c(C(=O)Nc4cccnc4)n3)cc2)CC1 [AZD2858],0.3186,−1.23,–,–
CN(C)C/C=C/C(=O)Nc1cc2c(Nc3ccc(F)c(Cl)c3)ncnc2cc1O[C@H]1CCOC1 [Afatinib],0.3078,−0.98,–,LECT2 Fold Change (Log2) (LECT2): −0.75 Log2
CCOC(=O)C1=C(COCCN)NC(C)=C(C(=O)OC)C1c1ccccc1Cl (stereo not shown) [Amlodipine Besylate],0.3035,−1.22,–,LECT2 Fold Change (Log2) (LECT2): −0.55 Log2
CCN1CCN(c2ccc(Nc3cc(N(C)C(=O)Nc4c(Cl)c(OC)cc(OC)c4Cl)ncn3)cc2)CC1 [BGJ398],0.3368,−1.36,–,–
COc1cc(Nc2c(C#N)cnc3cc(OCCCN4CCN(C)CC4)c(OC)cc23)c(Cl)cc1Cl [Bosutinib],–,–,0.34,–
C=C1/C(=C\C=C2/CCC[C@]3(C)[C@@H]([C@H](C)CCCC(C)(C)O)CC[C@@H]23)C[C@@H](O)C[C@@H]1O [Calcitriol],0.483,−0.79,–,LECT2 Fold Change (Log2) (LECT2): −1.82 Log2
COc1cc2c(Oc3ccc4[nH]c(C)cc4c3F)ncnc2cc1OCCCN1CCCC1 [Cediranib],0.4323,−0.79,–,–
CC(=O)N(O)CCCCCNC(=O)CCC(=O)N(O)CCCCCNC(=O)CCC(=O)N(O)CCCCCN [Deferoxamine mesylate],–,–,0.37,–
O=Cc1c2[nH]c3ccccc3c2cc2[nH]c3ccccc3c12 [FICZ],0.3231,–,0.44,UGT1A1 Fold Change (Log2) (UGT1A1): 2.62 Log2
C[N+]1(C)CCC(OC(=O)C(O)(c2ccccc2)C2CCCC2)C1 (stereo not shown) [Glycopyrrolate],–,–,–,"CPOX Fold change (Log2) (CPOX; RNA-seq, primary human hepatocytes, significance FPKM ≥0.5, log 2(fold change) ≥0.3, q-value ≤0.05): 0.31 Log2"
c1ccc2c(-c3cnn4cc(-c5ccc(N6CCNCC6)cc5)cnc34)ccnc2c1 [LDN193189],0.4204,−0.87,–,JAG1 Fold Change (Log2) (JAG1; primary human hepatocytes): 2.07 Log2; Significant modulation of JAG1 (in words) (JAG1; summary of Table 6): significantly modulate only JAG1; NOTCH2 Fold Change (Log2) (NOTCH2): 0 Log2
O=C(O)CC[C@H]1CC[C@@](c2cc(F)ccc2F)(S(=O)(=O)c2ccc(Cl)cc2)CC1 [MK-0752],–,–,0.34,–
CCc1nn(CCCN2CCN(c3cccc(Cl)c3)CC2)c(=O)n1CCOc1ccccc1 [Nefazodone],–,–,0.35,–
NCC(=O)Nc1ccc(-n2nc(C(F)(F)F)cc2-c2ccc3c(ccc4ccccc43)c2)cc1 [OSU-03012],0.4965,−1.03,–,LECT2 Fold Change (Log2) (LECT2): −0.77 Log2
Cc1c(C(=O)NN2CCCCC2)nn(-c2ccc(Cl)cc2Cl)c1-c1ccc(Cl)cc1 [Rimonabant],0.4538,−0.76,–,LECT2 Fold Change (Log2) (LECT2): −0.81 Log2
O=C(NCCCn1ccnc1)c1cc(-c2ccco2)on1 [SKL2001],0.4323,−0.81,0.45,–
CNC1CCC(N(Cc2cccc(-c3ccncc3)c2)C(=O)c2sc3ccccc3c2Cl)CC1 (stereo not shown) [Smoothened Agonist],0.3035,−1.95,–,–
COc1cc2nccc(Oc3ccc(NC(=O)Nc4cc(C)on4)c(Cl)c3)c2cc1OC [Tivozanib],0.4204,−0.8,–,–
CN1C(=O)c2sccc2N(C)c2nc(Nc3ccc(S(N)(=O)=O)cc3)ncc21 [XMU-MP-1],–,–,0.37,–
COc1nc(N)nc2c1ncn2[C@@H]1O[C@H](COP(=O)(N[C@@H](C)C(=O)OCC(C)(C)C)Oc2cccc3ccccc23)[C@@H](O)[C@@]1(C)O (stereo partly shown) [bms-986094 (inx-189)],–,−1.00,–,–
